# What was measured:
# Experiment in all cases: in vitro antibacterial evaluation, MIC by broth dilution
# Assay type in all cases: cell-based
# [1] = system: Enterococcus sp.; conditions: broth dilution, 18 hours at 35° C.
# Summary of the method: (§1)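 Following National Committee for Clinical Laboratory Standards recommendations (M7-A2), susceptibility was measured by dilution in Muller-Hinton II […]. Bacteria were seeded at 5×10^5 CFU/mL against compound concentrations from 64 down to 0.06 μg/mL.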
# [2] = system: Staphylococcus sp.; conditions: broth dilution, 18 hours at 35° C.
# Summary of the method: as §1
# [3] = system: Streptococcus sp.; conditions: broth dilution, 18 hours at 35° C.
# Summary of the method: as §1
# [4] = system: Escherichia coli; conditions: 18 hours at 35° C.
smiles,measurement,setting,value
CC(c1ccccc1)C1NC(=O)CNC(=O)C(CO)NC(=O)C(C(O)C2CNC(=N)N2C2OC(CO)C(O)C3OC(C)(C)OC32)NC(=O)C(C(O)C2CNC(=N)N2)NC(=O)C(Cc2ccc(OC3OC(CO)C(OC4OC(CO)C(O)C5OC(C)(C)OC45)C4OC(C)(C)OC34)cc2)NC1=O (stereo not shown) [Example 229a],MIC Enterococcus avium (GC 4558),[1],128 µg/mL
same,MIC Enterococcus faecalis (ATCC 29212),[1],>128 µg/mL
same,MIC Enterococcus faecalis (GC 2242),[1],>128 µg/mL
same,MIC Enterococcus faecalis (GC 2691),[1],>128 µg/mL
same,MIC Enterococcus faecalis (GC 3059),[1],>128 µg/mL
same,MIC Enterococcus faecalis (GC 4552),[1],>128 µg/mL
same,MIC Enterococcus faecalis (GC 4553),[1],>128 µg/mL
same,MIC Enterococcus faecalis (GC 4554),[1],>128 µg/mL
same,MIC Enterococcus faecalis (GC 6189),[1],>128 µg/mL
same,MIC Enterococcus faecium (GC 2243),[1],>128 µg/mL
same,MIC Enterococcus faecium (GC 4556),[1],>128 µg/mL
same,MIC Enterococcus faecium (GC 4557),[1],>128 µg/mL
same,MIC Enterococcus faecalis (ATCC 29212),"[1]; inoculum 5×10^5 CFU/mL, strain ATCC 29212",>128 µg/mL
same,MIC Enterococcus faecalis (GC 2242),"[1]; inoculum 5×10^5 CFU/mL, strain GC 2242",>128 µg/mL
same,MIC Enterococcus faecium (GC 2243),"[1]; inoculum 5×10^5 CFU/mL, strain GC 2243",>128 µg/mL
same,MIC Enterococcus faecalis (GC 2691),"[1]; inoculum 5×10^5 CFU/mL, strain GC 2691",>128 µg/mL
same,MIC Enterococcus faecalis (GC 3059),"[1]; inoculum 5×10^5 CFU/mL, strain GC 3059",>128 µg/mL
same,MIC Enterococcus faecalis (GC 4552),"[1]; inoculum 5×10^5 CFU/mL, strain GC 4552",>128 µg/mL
same,MIC Enterococcus faecalis (GC 4553),"[1]; inoculum 5×10^5 CFU/mL, strain GC 4553",>128 µg/mL
same,MIC Enterococcus faecalis (GC 4554),"[1]; inoculum 5×10^5 CFU/mL, strain GC 4554",>128 µg/mL
same,MIC Enterococcus faecium (GC 4556),"[1]; inoculum 5×10^5 CFU/mL, strain GC 4556",>128 µg/mL
same,MIC Enterococcus faecium (GC 4557),"[1]; inoculum 5×10^5 CFU/mL, strain GC 4557",>128 µg/mL
same,MIC Enterococcus avium (GC 4558),"[1]; inoculum 5×10^5 CFU/mL, strain GC 4558",128 µg/mL
same,MIC Enterococcus faecalis (GC 6189),"[1]; inoculum 5×10^5 CFU/mL, strain GC 6189",>128 µg/mL
same,MIC Coagulase Negative Staphylococcus (GC 4547),[2],>128 µg/mL
same,MIC Coagulase Negative Staphylococcus (GC 4548),[2],>128 µg/mL
same,MIC Coagulase Negative Staphylococcus (GC 4549),[2],>128 µg/mL
same,MIC Coagulase Negative Staphylococcus (GC 4551),[2],>128 µg/mL
same,MIC Coagulase Negative Staphylococcus (GC 6257),[2],>128 µg/mL
same,MIC Staphylococcus aureus (ATCC 29213),[2],>128 µg/mL
same,MIC Staphylococcus aureus (GC 1131),[2],>128 µg/mL
same,MIC Staphylococcus aureus (GC 3051),[2],>128 µg/mL
same,MIC Staphylococcus aureus (GC 3053),[2],>128 µg/mL
same,MIC Staphylococcus aureus (GC 4541),[2],>128 µg/mL
same,MIC Staphylococcus aureus (GC 4542),[2],>128 µg/mL
same,MIC Staphylococcus aureus (GC 4544),[2],>128 µg/mL
same,MIC Staphylococcus aureus (GC 4545),[2],>128 µg/mL
same,MIC Staphylococcus aureus-SMITH (GC 4543),[2],>128 µg/mL
same,MIC Staphylococcus haemolyticus (GC 4546),[2],>128 µg/mL
same,MIC Staphylococcus aureus (ATCC 29213),[2]; strain ATCC 29213,>128 µg/mL
same,MIC Staphylococcus aureus (GC 1131),[2]; strain GC 1131,>128 µg/mL
same,MIC Staphylococcus aureus (GC 3051),[2]; strain GC 3051,>128 µg/mL
same,MIC Staphylococcus aureus (GC 3053),[2]; strain GC 3053,>128 µg/mL
same,MIC Staphylococcus aureus (GC 4541),[2]; strain GC 4541,>128 µg/mL
same,MIC Staphylococcus aureus (GC 4542),[2]; strain GC 4542,>128 µg/mL
same,MIC Staphylococcus aureus-SMITH (GC 4543),[2]; strain GC 4543,>128 µg/mL
same,MIC Staphylococcus aureus (GC 4544),[2]; strain GC 4544,>128 µg/mL
same,MIC Staphylococcus aureus (GC 4545),[2]; strain GC 4545,>128 µg/mL
same,MIC Staphylococcus haemolyticus (GC 4546),[2]; strain GC 4546,>128 µg/mL
same,MIC Coagulase Negative Staphylococcus (GC 4547),[2]; strain GC 4547,>128 µg/mL
same,MIC Coagulase Negative Staphylococcus (GC 4548),[2]; strain GC 4548,>128 µg/mL
same,MIC Coagulase Negative Staphylococcus (GC 4549),[2]; strain GC 4549,>128 µg/mL
same,MIC Coagulase Negative Staphylococcus (GC 4551),[2]; strain GC 4551,>128 µg/mL
same,MIC Coagulase Negative Staphylococcus (GC 6257),[2]; strain GC 6257,>128 µg/mL
same,MIC Streptococcus agalactiae (GC 4564),[3],>128 µg/mL
same,MIC Streptococcus pneumoniae (ATCC 6301),[3],>128 µg/mL
same,MIC Streptococcus pneumoniae (GC 1894),[3],>128 µg/mL
same,MIC Streptococcus pneumoniae (GC 4565),[3],>128 µg/mL
same,MIC Streptococcus pyogenes (GC 4563),[3],>128 µg/mL
same,MIC Streptococcus pneumoniae (ATCC 6301),"[3]; inoculum 5×10^5 CFU/mL, strain ATCC 6301",>128 µg/mL
same,MIC Streptococcus pneumoniae (GC 1894),"[3]; inoculum 5×10^5 CFU/mL, strain GC 1894",>128 µg/mL
same,MIC Streptococcus pyogenes (GC 4563),"[3]; inoculum 5×10^5 CFU/mL, strain GC 4563",>128 µg/mL
same,MIC Streptococcus agalactiae (GC 4564),"[3]; inoculum 5×10^5 CFU/mL, strain GC 4564",>128 µg/mL
same,MIC Streptococcus pneumoniae (GC 4565),"[3]; inoculum 5×10^5 CFU/mL, strain GC 4565",>128 µg/mL
same,MIC Escherichia coli (ATCC 25922),[4],>128 µg/mL
same,MIC Escherichia coli (GC 4559),[4],>128 µg/mL
same,MIC Escherichia coli (GC 4560),[4],>128 µg/mL

# Reference: patent US6914045B2, “Glycopeptide antibiotics” (Wyeth Holdings Corporation, priority 2001, dated 2005)
